According to ChEMBL document CHEMBL5335866, “Structure-Based Optimization of Selective and Brain Penetrant CK1δ Inhibitors for the Treatment of Circadian Disruptions” (ACS Med Chem Lett, 2024):
Converted amounts (≈) assume the structure as drawn.

Experiments:
[1] = target: Mitogen-activated protein kinase 14 (Homo sapiens, UniProt Q16539); assay: Inhibition of p38 alpha (unknown origin)
[2] = target: Epithelial discoidin domain-containing receptor 1 (Homo sapiens) (UniProt Q08345); assay: Inhibition of DDR1 (unknown origin) at 1 uM by radiometric assay relative to control
[3] = target: T1, Serine/threonine-protein kinase NLK (Homo sapiens) (UniProt Q9UBE8); assay: Inhibition of NLK (unknown origin) at 1 uM by radiometric assay relative to control
T1 sequence (whole entry): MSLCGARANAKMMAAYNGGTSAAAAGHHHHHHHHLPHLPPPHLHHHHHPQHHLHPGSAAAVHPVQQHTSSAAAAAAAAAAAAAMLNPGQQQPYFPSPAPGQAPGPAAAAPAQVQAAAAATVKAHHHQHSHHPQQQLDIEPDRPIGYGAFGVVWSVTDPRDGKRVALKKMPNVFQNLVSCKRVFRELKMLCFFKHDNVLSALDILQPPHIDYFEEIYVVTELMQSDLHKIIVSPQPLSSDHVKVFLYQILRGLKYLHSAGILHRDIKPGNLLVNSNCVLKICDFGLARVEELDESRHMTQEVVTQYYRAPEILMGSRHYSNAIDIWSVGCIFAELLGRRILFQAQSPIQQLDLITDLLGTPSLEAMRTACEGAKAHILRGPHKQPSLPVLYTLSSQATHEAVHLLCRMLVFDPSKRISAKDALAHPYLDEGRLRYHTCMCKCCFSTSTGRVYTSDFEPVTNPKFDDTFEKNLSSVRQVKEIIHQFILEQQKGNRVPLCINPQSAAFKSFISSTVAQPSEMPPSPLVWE

[4] = target: T2, TGF-beta receptor type-1 (Homo sapiens) (UniProt P36897); assay: Inhibition of TGFBR1 (unknown origin) at 1 uM by radiometric assay relative to control
T2 sequence (whole entry): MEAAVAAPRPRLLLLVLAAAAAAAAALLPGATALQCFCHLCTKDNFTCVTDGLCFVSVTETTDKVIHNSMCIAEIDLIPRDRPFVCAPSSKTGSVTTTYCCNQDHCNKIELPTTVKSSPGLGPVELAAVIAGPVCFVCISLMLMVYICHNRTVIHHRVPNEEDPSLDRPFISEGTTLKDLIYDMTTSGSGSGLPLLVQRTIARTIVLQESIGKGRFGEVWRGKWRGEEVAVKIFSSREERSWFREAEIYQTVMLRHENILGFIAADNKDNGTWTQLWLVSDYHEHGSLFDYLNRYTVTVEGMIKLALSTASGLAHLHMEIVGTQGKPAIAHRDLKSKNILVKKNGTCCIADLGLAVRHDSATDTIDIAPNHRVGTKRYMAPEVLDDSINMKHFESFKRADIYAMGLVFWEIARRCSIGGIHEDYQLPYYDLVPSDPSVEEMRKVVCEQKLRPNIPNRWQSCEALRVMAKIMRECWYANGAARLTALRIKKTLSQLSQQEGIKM

[5] = target: Mitogen-activated protein kinase kinase kinase 20 (Homo sapiens) (UniProt Q9NYL2); assay: Inhibition of ZAK (unknown origin) at 1 uM by radiometric assay relative to control
Mitogen-activated protein kinase kinase kinase 20 (Homo sapiens), sequence (Q9NYL2 2-800 limits assumed): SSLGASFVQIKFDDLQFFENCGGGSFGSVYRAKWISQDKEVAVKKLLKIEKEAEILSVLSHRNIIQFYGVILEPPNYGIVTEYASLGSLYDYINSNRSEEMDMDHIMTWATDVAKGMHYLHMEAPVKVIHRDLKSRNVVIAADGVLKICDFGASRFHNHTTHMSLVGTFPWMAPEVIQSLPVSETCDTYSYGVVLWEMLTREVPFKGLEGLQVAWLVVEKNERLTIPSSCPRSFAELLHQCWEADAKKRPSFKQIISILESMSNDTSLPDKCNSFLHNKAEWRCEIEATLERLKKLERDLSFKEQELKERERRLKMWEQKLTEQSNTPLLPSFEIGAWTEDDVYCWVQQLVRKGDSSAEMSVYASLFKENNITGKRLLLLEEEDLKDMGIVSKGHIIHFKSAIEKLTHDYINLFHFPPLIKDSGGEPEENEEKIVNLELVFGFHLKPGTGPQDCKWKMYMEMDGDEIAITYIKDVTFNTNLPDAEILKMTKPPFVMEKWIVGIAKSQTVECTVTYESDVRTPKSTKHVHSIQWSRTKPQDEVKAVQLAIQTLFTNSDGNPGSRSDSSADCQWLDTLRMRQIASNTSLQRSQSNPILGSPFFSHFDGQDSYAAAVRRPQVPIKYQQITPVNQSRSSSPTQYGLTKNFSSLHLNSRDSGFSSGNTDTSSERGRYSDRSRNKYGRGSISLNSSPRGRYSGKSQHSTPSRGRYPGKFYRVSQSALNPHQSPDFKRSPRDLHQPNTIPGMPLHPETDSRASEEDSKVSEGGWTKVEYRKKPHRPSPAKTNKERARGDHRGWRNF

[6] = target: TRAF2 and NCK-interacting protein kinase (Homo sapiens, UniProt Q9UKE5); assay: Inhibition of TNIK (unknown origin) at 1 uM by radiometric assay relative to control
TRAF2 and NCK-interacting protein kinase, sequence (Q9UKE5 whole entry, looked up): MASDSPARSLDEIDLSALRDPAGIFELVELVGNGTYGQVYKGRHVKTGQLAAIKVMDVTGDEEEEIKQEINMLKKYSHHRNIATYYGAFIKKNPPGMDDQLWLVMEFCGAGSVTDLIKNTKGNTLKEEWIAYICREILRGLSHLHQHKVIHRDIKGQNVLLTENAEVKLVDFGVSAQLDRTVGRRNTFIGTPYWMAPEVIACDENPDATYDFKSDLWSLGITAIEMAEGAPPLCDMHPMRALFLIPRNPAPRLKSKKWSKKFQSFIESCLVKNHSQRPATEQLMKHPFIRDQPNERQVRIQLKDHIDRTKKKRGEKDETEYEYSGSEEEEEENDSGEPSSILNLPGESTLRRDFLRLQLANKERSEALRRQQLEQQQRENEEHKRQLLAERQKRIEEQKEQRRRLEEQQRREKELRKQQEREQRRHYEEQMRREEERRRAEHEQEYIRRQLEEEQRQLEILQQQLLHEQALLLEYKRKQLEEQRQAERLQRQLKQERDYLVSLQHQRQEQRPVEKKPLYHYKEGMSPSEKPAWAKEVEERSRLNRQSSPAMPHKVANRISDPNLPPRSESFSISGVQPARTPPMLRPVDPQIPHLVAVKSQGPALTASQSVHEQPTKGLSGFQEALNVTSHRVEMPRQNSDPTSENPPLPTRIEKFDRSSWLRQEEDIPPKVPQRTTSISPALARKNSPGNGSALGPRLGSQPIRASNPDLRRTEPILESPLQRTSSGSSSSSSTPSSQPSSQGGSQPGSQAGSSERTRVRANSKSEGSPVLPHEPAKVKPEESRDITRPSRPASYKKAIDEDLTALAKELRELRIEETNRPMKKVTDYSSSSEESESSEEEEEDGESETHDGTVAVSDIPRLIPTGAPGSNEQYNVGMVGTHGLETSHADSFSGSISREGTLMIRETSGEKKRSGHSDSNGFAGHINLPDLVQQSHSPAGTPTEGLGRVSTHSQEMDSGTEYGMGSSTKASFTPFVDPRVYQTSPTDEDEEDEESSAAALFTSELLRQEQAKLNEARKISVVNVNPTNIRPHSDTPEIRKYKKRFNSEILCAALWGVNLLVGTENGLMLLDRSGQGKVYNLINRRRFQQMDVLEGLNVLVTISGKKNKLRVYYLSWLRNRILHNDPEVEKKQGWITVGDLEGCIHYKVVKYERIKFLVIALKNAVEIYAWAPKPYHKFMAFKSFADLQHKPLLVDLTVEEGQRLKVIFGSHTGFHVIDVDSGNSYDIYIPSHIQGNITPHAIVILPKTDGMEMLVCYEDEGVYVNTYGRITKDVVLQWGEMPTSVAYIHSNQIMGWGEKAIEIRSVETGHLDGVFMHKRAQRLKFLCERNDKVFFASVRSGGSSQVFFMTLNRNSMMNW

[7] = target: Receptor-interacting serine/threonine-protein kinase 2 (Homo sapiens) (UniProt O43353); assay: Inhibition of RIPK2 (unknown origin) at 1 uM by radiometric assay relative to control
[8] = target: Citron Rho-interacting kinase (Homo sapiens) (UniProt O14578); assay: Inhibition of CRIK (unknown origin) at 1 uM by radiometric assay relative to control
Citron Rho-interacting kinase (Homo sapiens), sequence (O14578 whole entry): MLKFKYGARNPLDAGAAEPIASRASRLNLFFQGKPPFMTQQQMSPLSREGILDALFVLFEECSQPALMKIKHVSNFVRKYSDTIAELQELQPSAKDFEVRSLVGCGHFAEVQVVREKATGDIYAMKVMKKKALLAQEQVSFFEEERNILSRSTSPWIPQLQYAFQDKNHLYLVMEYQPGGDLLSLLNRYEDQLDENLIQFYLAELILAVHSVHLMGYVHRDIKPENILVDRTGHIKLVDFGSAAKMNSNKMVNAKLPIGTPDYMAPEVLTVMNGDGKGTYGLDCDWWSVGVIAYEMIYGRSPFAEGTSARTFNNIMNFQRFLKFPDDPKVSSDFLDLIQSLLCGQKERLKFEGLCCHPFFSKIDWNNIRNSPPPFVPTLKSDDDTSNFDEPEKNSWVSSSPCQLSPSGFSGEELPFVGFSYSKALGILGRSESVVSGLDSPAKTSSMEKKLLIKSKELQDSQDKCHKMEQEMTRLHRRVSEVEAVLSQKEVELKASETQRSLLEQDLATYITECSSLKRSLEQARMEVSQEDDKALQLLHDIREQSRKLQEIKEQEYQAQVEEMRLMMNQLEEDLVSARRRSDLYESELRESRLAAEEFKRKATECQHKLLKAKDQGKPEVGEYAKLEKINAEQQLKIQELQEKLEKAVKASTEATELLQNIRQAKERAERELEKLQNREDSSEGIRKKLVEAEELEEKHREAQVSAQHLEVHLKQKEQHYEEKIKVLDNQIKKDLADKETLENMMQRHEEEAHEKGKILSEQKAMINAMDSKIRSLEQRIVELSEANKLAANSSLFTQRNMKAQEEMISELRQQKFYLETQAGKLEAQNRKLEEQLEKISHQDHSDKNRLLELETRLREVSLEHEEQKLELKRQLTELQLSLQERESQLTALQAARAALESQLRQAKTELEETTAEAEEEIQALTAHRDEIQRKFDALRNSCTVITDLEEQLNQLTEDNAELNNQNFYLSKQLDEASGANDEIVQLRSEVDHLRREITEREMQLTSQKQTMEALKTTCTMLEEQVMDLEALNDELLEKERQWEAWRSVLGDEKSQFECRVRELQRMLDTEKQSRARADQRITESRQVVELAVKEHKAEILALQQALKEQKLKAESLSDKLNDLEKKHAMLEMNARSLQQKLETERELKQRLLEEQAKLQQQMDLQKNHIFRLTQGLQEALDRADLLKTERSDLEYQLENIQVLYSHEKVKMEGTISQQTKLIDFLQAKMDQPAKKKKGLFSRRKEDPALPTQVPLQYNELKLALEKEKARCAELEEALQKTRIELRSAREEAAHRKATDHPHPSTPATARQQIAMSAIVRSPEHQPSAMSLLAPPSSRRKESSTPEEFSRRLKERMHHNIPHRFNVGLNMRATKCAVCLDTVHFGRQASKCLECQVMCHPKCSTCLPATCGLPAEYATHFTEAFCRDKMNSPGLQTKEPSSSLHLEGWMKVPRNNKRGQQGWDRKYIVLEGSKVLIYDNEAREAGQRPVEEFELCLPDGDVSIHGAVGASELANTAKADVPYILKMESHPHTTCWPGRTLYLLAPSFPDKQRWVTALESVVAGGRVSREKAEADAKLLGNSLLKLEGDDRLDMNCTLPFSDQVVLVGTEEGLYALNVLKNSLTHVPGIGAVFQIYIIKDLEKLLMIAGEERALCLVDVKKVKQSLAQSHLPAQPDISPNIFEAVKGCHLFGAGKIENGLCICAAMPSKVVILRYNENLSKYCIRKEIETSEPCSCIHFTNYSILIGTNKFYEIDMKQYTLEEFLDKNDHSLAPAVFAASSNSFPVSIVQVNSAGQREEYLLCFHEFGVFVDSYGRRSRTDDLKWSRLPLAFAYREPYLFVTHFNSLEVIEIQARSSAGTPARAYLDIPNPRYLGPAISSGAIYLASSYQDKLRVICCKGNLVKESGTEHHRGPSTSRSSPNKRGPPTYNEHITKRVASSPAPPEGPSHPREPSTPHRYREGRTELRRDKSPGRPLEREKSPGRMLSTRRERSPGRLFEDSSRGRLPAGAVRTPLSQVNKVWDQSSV

[9] = target: T3, Dual specificity mitogen-activated protein kinase kinase 3 (Homo sapiens) (UniProt P46734); assay: Inhibition of MKK3 (unknown origin) at 1 uM by radiometric assay relative to control
T3 sequence (whole entry): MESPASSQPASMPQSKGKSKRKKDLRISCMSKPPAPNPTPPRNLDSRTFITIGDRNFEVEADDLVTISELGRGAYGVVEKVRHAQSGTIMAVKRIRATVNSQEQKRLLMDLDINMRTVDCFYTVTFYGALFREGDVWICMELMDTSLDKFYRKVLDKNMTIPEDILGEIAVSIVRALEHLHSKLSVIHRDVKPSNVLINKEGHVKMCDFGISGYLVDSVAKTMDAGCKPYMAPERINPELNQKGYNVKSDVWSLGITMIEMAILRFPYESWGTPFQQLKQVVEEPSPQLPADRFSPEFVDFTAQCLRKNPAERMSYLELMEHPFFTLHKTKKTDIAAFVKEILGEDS

[10] = target: T4, Casein kinase I isoform delta (Homo sapiens, UniProt P48730); assay: Displacement of kinase tracer 8 from NanoLuc-tagged CK1 delta (unknown origin) transfected in CHO cells by BRET assay; format: cell-based
T4 sequence (P48730 whole entry, canonical isoform): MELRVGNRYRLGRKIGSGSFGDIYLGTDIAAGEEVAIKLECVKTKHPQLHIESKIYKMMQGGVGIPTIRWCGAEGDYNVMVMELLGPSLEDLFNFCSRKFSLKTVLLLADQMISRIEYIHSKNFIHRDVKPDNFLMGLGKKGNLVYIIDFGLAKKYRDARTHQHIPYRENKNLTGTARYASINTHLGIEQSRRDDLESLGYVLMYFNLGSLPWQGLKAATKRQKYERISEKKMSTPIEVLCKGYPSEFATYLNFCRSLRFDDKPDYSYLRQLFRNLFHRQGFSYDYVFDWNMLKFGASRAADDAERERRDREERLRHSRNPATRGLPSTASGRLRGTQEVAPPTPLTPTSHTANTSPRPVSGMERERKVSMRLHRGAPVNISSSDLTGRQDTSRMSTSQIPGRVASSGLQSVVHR

[11] = Intrinsic clearance in rat liver microsomes at 1 uM preincubated for 5 mins followed by NADPH addition measured for 60 mins by LC-MS/MS analysis; format: ADME, Microsome; details: time 65 min, read-out: CLH
[12] = Clearance in Sprague-Dawley rat at 1 mg/kg, iv measured for 24 hrs by LC-MS/MS analysis; format: ADME, organism-based; details: in vivo
[13] = Volume of distribution at steady state in Sprague-Dawley rat at 1 mg/kg, iv measured for 24 hrs by LC-MS/MS analysis; format: ADME, organism-based; details: in vivo, read-out: Vdss
[14] = Intrinsic clearance in human liver microsomes at 1 uM preincubated for 5 mins followed by NADPH addition measured for 60 mins by LC-MS/MS analysis; format: ADME, Microsome; details: time 65 min, read-out: CLH
[15] = Apparent permeability across apical to basal side in MDCK cells expressing MDR1 at 5 uM incubated for 60 mins by LC/MS/MS analysis; format: ADME, cell-based, Canis lupus familiaris, MDCK1; details: dog
[16] = AUC (infinity) in Sprague-Dawley rat at 5 mg/kg, po measured for 24 hrs by LC-MS/MS analysis; format: ADME, organism-based; parameters: time 24 hrs, dose 5 mg/kg, route po; details: in vivo
[17] = Solubility of compound at pH 7 measured for 2 to 5 days by HPLC analysis; format: physicochemical; details: buffer, time 2-5 day
[18] = Oral bioavailability in Sprague-Dawley rat at 5 mg/kg measured for 24 hrs by LC-MS/MS analysis; format: ADME, organism-based; details: in vivo
[19] = Half life in Sprague-Dawley rat at 5 mg/kg, po measured for 24 hrs by LC-MS/MS analysis; format: ADME, organism-based; details: in vivo
[20] = target: T4, Casein kinase I isoform delta; assay: Inhibition of N-terminal GST-tagged recombinant human CK1 delta expressed in Escherichia coli BL21 cells using PLSRTL-pS-VA-pS-LPGL as substrate measured after 60 mins in presence of ATP by ADP-Glo assay
[21] = target: Mitogen-activated protein kinase 11 (Homo sapiens, UniProt Q15759); assay: Inhibition of p38 beta (unknown origin)
[22] = Solubility of compound at pH 2 measured for 2 to 5 days by HPLC analysis; format: physicochemical; details: buffer, time 2-5 day
MDR1 = assay: Efflux ratio of apparent permeability across basal to apical side over apical to basal side in MDCK cells expressing MDR1 at 5 uM incubated for 60 mins by LC/MS/MS analysis; format: ADME, cell-based, Canis lupus familiaris, MDCK1; details: dog
[23] = Cmax in Sprague-Dawley rat at 5 mg/kg, po measured for 24 hrs by LC-MS/MS analysis; format: ADME, organism-based; parameters: dose 5 mg/kg, time 24 hrs, route po; details: in vivo

Mitogen-activated protein kinase 14, sequence (Q16539 whole entry, the tested form may be a part): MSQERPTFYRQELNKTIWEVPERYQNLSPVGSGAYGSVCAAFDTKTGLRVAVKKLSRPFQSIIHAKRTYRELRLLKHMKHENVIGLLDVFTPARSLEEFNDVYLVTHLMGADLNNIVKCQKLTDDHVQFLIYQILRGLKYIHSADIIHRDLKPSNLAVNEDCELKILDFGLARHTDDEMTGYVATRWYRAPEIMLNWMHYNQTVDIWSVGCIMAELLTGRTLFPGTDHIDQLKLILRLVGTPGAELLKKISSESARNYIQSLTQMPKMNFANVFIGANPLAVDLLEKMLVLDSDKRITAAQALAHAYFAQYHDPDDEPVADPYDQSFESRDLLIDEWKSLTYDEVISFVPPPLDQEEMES

Row | Structure (SMILES) | IC50 [1] [nM] | inhibition [2] [%] | inhibition [3] [%] | inhibition [4] [%] | inhibition [5] [%] | inhibition [6] [%] | inhibition [7] [%] | inhibition [8] [%] | inhibition [9] [%] | IC50 [10] [nM] | microsomal CLint at 1 µM [11] [µL/min/mg] | microsomal CLint at 1 µM [14] [µL/min/mg] | further results
1 | Fc1ccc(-c2nn3c(c2-c2ccnc4[nH]ccc24)COCC3)nc1 | 4000 | 6 | 0 | 59 | 9 | 46 | 10 | 5 | 44 |  |  |  | 
2 | Cc1cnc2[nH]ccc2c1-c1cn(C)nc1-c1ccc(F)cn1 | 3000 | 21 | 0 | 8 | 30 | 54 | 0 | 14 | 19 |  |  |  | 
3 | Fc1ccc(-c2nn3c(c2-c2ccnc(NC4CCOCC4)n2)COCC3)cc1 |  |  |  |  |  |  |  |  |  | 45 |  |  | 
4 | Cn1cc(-c2c(C#N)cnc3[nH]ccc23)c(-c2ccc(F)cn2)n1 | 6200 | 20 | 17 | 17 | 40 | 88 | 0 | 9 | 11 |  |  |  | 
5 | Cn1cc(-c2ccnc3[nH]c(C(F)(F)F)cc23)c(-c2ccc(F)cn2)n1 | 200 | 68 | 83 | 69 | 87 | 85 | 63 | 54 | 75 | 250 |  |  | 
6 | Cn1cc(-c2ccnc3[nH]ncc23)c(-c2ccc(F)cc2)n1 | 250 |  |  |  |  |  |  |  |  | 36 | 42.2 | 9.4 | clearance [12]: 23 mL/min/kg; Vd [13]: 1.6 L/kg; Papp A→B at 1 h, 5 µM [15]: 27.3 ×10⁻⁶ cm/s; AUC(0-inf) [16]: 2580 ng·h/mL; solubility [17]: 8.7 µM (≈ 2.55 µg/mL); bioavailability [18]: 70%; half-life [19]: 2 h; IC50 [20]: 1.4 nM; IC50 [21]: 780 nM; solubility [22]: 112 µM (≈ 32.9 µg/mL); efflux ratio at 1 h, 5 µM (MDR1): 3; Cmax [23]: 2400 nM
7 | Cn1cc(-c2ccnc3[nH]ccc23)c(-c2ccc(F)cc2)n1 | 140 |  |  |  |  |  |  |  |  |  | 170 | 45 | Papp A→B at 1 h, 5 µM [15]: 25.9 ×10⁻⁶ cm/s; solubility [17]: < 4 µM; IC50 [20]: 2.2 nM; IC50 [21]: 250 nM; solubility [22]: > 400 µM; efflux ratio at 1 h, 5 µM (MDR1): 1.02
8 | Cn1cc(-c2ccnc3[nH]ccc23)c(-c2ccc(F)cn2)n1 | 930 | 89 | 74 | 98 | 100 | 60 | 81 | 80 | 74 |  | 53.5 | 7.7 | clearance [12]: 35 mL/min/kg; Vd [13]: 0.6 L/kg; Papp A→B at 1 h, 5 µM [15]: 19.6 ×10⁻⁶ cm/s; AUC(0-inf) [16]: 755 ng·h/mL; solubility [17]: > 400 µM; bioavailability [18]: 32%; half-life [19]: 1.3 h; IC50 [21]: > 1000 nM; solubility [22]: > 400 µM; Cmax [23]: 1600 nM
9 | Fc1ccc(-c2nn3c(c2-c2ccnc4[nH]ncc24)CCC(F)(F)C3)nc1 |  |  |  |  |  |  |  |  |  | 300 |  |  | 
10 | Cn1cc(-c2cc(N)nc3[nH]ccc23)c(-c2ccc(F)cn2)n1 | > 10000 | 8 | 0 | 8 | 18 | 39 | 3 | 0 | 29 |  |  |  | 
11 | CC1(C)Cn2nc(-c3ccc(F)cn3)c(-c3ccnc4[nH]ccc34)c2CO1 | 2100 | 25 | 16 | 49 | 20 | 84 | 39 | 15 | 40 |  | 42.9 | 15.1 | 
